Experimental data published in patent publication US20120309792A1, “TETRAZOLE DERIVATIVES AS NICOTINIC ACETYLCHOLINE RECEPTOR MODULATORS” (NEUROSEARCH A/S, priority 2009, published 2012).

molecular target: T1, human nicotinic acetylcholine receptor subtype a4b2 (Homo sapiens, UniProt P17787+P43681); test: Characterization of hα4β2 positive allosteric modulators using FLIPR; type: cell-based; details: shift of nicotine pEC50 in presence of 10 μM test compound; HEK-293 cells stably expressing hα4β2; fluo-4 calcium FLIPR
T1 construct: expressed in transfected cells
Procedure: Characterization of hα4β2 Positive Allosteric Modulators Using FLIPR
The modulator activity is determined as a fluorescence-based assay using a Fluorometric Imaging Plate Reader (FLIPR) as described below in more detail.
HEK-hα4β2 cells were seeded on poly-D-lysin-coated 384 well microtiter plates and allowed to proliferate for 24 h. Dye loading was performed by incubating cells with 2 μM fluo-4/AM for 1.5 h at room temperature. Dye not taken up by the cells was removed by aspiration, followed by three washing cycles with NMDG Ringer buffer (containing in mM: 140 NMDG, 5 KCl, 1 MgCl2, 10 CaCl2, 10 HEPES, pH 7.4). The microtiter plates were then placed in the FLIPR and subjected to test solutions.
Full concentration-response curves of nicotine were generated in the absence and presence test compound. Background-subtracted nicotine-mediated calcium responses were determined and normalized to maximal nicotine control responses. Nicotine potencies (expressed as pEC50) were calculated and the difference between the functional potency in the absence and presence of test compound was determined (Δ pEC50).
The modulatory activity of compounds of the invention determined as ΔpEC50 values in the presence of 10 μM of test compound are presented in Table 1 below.

T1 sequence (P43681 29-627 limits assumed): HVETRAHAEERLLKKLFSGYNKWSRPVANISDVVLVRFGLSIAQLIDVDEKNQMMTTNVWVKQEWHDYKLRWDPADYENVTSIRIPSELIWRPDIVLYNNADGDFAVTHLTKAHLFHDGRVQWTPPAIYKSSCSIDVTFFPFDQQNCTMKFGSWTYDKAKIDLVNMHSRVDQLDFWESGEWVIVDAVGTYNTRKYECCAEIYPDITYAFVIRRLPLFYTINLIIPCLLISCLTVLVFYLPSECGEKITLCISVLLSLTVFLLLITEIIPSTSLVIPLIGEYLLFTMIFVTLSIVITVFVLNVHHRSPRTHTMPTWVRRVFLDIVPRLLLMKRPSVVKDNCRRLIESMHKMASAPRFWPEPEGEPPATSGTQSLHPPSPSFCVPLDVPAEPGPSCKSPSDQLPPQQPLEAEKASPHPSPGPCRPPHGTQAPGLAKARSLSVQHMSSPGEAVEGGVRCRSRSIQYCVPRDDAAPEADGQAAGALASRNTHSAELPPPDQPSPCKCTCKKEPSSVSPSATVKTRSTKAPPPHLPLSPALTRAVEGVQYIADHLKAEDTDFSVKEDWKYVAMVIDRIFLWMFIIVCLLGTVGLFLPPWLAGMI
T1 sequence (P17787 26-502): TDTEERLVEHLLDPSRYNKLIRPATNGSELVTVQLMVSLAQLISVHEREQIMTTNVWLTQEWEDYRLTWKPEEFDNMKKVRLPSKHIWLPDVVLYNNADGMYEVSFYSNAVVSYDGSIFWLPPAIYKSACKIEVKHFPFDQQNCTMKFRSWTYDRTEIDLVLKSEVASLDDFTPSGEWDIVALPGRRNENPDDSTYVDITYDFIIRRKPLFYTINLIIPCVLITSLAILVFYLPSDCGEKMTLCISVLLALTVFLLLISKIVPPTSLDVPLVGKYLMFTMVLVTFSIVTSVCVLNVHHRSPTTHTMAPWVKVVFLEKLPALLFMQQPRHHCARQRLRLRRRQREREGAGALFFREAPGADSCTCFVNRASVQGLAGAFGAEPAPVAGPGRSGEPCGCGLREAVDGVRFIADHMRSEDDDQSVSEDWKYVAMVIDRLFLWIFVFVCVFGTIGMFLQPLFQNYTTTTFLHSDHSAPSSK

Row | SMILES | ΔpEC50
1 | Cc1ccc(-c2nnn(-c3cccnc3)n2)cn1 [Compound B4, 2-Methyl-5-[2-(3-pyridyl)tetrazol-5-yl]pyridine] | 1.0
2 | Clc1cncc(-c2nnn(-c3cccnc3)n2)c1 [Compound B15, 3-Chloro-5-[2-(3-pyridyl)tetrazol-5-yl]pyridine] | 1.7
3 | Fc1ccc(-n2nnc(-c3cccnc3F)n2)cn1 [Compound B24, 2-fluoro-3-[2-(6-fluoro-3-pyridyl)tetrazol-5-yl]pyridine] | 1.6
4 | Fc1cncc(-n2nnc(-c3cccnc3)n2)c1 [Compound A1, 3-Fluoro-5-[5-(3-pyridyl)tetrazol-2-yl]pyridine] | 1.5
5 | Fc1cncc(-c2nnn(-c3cncc(F)c3)n2)c1 [Compound B10, 3-Fluoro-5-[2-(5-fluoro-3-pyridyl)tetrazol-5-yl]pyridine] | 1.3
6 | Fc1cncc(-n2nnc(-c3cncc(Cl)c3)n2)c1 [Compound B22, 3-chloro-5-[2-(5-fluoro-3-pyridyl)tetrazol-5-yl]pyridine] | 1.1
7 | Fc1cncc(-c2nnn(-c3cccnc3)n2)c1 [Compound B16, 3-Fluoro-5-[2-(3-pyridyl)tetrazol-5-yl]pyridine] | 1.7
8 | Cc1cncc(-n2nnc(-c3cccnc3)n2)c1 [Compound B6, 3-Methyl-5-[5-(3-pyridyl)tetrazol-2-yl]pyridine] | 0.16
9 | Cc1ccc(-n2nnc(-c3cccnc3)n2)cn1 [Compound B5, 2-Methyl-5-[5-(3-pyridyl)tetrazol-2-yl]pyridine] | 1.7
10 | Fc1cncc(-c2nnn(-c3ccc(Cl)nc3)n2)c1 [Compound B19, 2-chloro-5-[5-(5-fluoro-3-pyridyl)tetrazol-2-yl]pyridine] | 1.6
11 | Fc1ccc(-n2nnc(-c3cccnc3)n2)cn1 [Compound B9, 2-Fluoro-5-[5-(3-pyridyl)tetrazol-2-yl]pyridine] | 1.9
12 | Cc1ncccc1-c1nnn(-c2cccnc2)n1 [Compound B8, 2-Methyl-3-[2-(3-pyridyl)tetrazol-5-yl]pyridine] | −0.29
13 | Cc1ncccc1-n1nnc(-c2cccnc2)n1 [Compound B7, 2-Methyl-3-[5-(3-pyridyl)tetrazol-2-yl]pyridine] | 0.11
14 | O=C(O)/C=C/C(=O)O.c1cncc(-c2nnn(-c3cccnc3)n2)c1 [Compound B1, 3-[2-(3-Pyridyl)tetrazol-5-yl]pyridine fumarate] | 1.8
15 | Brc1cncc(-n2nnc(-c3cccnc3)n2)c1 [Compound B2, 3-Bromo-5-[5-(3-pyridyl)tetrazol-2-yl]pyridine] | 0.55
16 | Fc1cncc(-c2nnn(-c3ccc(F)nc3)n2)c1 [Compound B11, 3-Fluoro-5-[2-(6-fluoro-3-pyridyl)tetrazol-5-yl]pyridine] | 1.4
17 | Fc1ccc(-c2nnn(-c3cccnc3)n2)cn1 [Compound B14, 2-Fluoro-5-[2-(3-pyridyl)tetrazol-5-yl]pyridine] | 1.5
18 | Clc1cncc(-n2nnc(-c3cccnc3)n2)c1 [Compound B21, 3-chloro-5-[5-(3-pyridyl)tetrazol-2-yl]pyridine] | 0.8
19 | Fc1ccc(-n2nnc(-c3cncc(Cl)c3)n2)cn1 [Compound B18, 3-chloro-5-[2-(6-fluoro-3-pyridyl)tetrazol-5-yl]pyridine] | 1.5
20 | Clc1ccc(-n2nnc(-c3cccnc3)n2)cn1 [Compound B17, 2-chloro-5-[5-(3-pyridyl)tetrazol-2-yl]pyridine] | 2.0
21 | Fc1cncc(-n2nnc(-c3ccc(F)nc3)n2)c1 [Compound B12, 2-Fluoro-5-[2-(5-fluoro-3-pyridyl)tetrazol-5-yl]pyridine] | 1.6
22 | Clc1ccc(-c2nnn(-c3cccnc3)n2)cn1 [Compound B13, 2-Chloro-5-[2-(3-pyridyl)tetrazol-5-yl]pyridine] | 1.8
23 | Brc1cncc(-c2nnn(-c3cccnc3)n2)c1 [Compound B23, 3-bromo-5-[2-(3-pyridyl)tetrazol-5-yl]pyridine] | 1.5
24 | COc1cncc(-n2nnc(-c3cccnc3)n2)c1 [Compound B3, 3-Methoxy-5-[5-(3-pyridyl)tetrazol-2-yl]pyridine] | −0.16
25 | Fc1cncc(-n2nnc(-c3ccc(Cl)nc3)n2)c1 [Compound B20, 2-chloro-5-[2-(5-fluoro-3-pyridyl)tetrazol-5-yl]pyridine] | 0.74
26 | Fc1ccc(-n2nnc(-c3cncc(I)c3)n2)cn1 [Compound B25, 2-fluoro-5-[5-(5-iodo-3-pyridyl)tetrazol-2-yl]pyridine] | 0.58
